The values below come from article PMC8037310, “Thrombin-Derived Peptides Potentiate the Activity of Gram-Positive-Specific Antibiotics against Gram-Negative Bacteria” (Molecules, 2021).

The structures appear in SMILES notation. Values joined by “and” are separate entries in the source; they are usually repeats but may differ in a detail not shown here. Identical values can stand only once. Like-named read-outs stand apart in the source and are kept apart here. Peptide text beside a SMILES is read from it.

Data set [1] relates to E. coli BW25113. In words: Checkerboard assay with erythromycin. Format: cell-based, Escherichia coli. The note with it: for MSCery: erythromycin concentration in the combination with the synergist giving the lowest FICi, E. coli BW25113; for MIC of the peptide (MICpep): synergist alone, from checkerboard with erythromycin; for MIC of the peptide (MICpep) / MSCpeptide, minimum synergistic concentration: E. coli BW25113, LB, 20 h 37 °C; for MSCpeptide, minimum synergistic concentration: synergist concentration in the combination with erythromycin giving the lowest FICi, OD600; for FICi: with erythromycin vs E. coli BW25113, synergy defined as FICi ≤ 0.5. The method, then: (§1) All peptides were screened for antimicrobial activity against E. coli BW25113, E. coli ATCC25922, and E. coli W3110. A select group of the peptides was further tested against E. coli mcr-1, E. coli EQASmcr-1 (EQAS 2016 412016126), E. coli EQASmcr-2 (EQAS 2016 KP37), E. coli EQASmcr-3 (EQAS 2017 2013-SQ352), K. pneumoniae ATCC13883, P. aeruginosa ATCC27853, and A. baumannii ATCC17978. The antimicrobial assay was performed according to CLSI guidelines. Bacteria were plated out directly from their glycerol stocks on blood agar plates, incubated overnight at 37 °C, and then kept in the fridge. The blood agar plates were only used for 2 weeks and then replaced.
(§2) One colony from a blood agar plates was inoculated in Lysogeny Broth (LB) at 37 °C until a 0.5 optical density at 600 nm (OD600) was reached (compared to the sterility control of LB). The bacterial suspension was diluted in fresh LB to 2.0 × 10^6 CFU/mL. The serial dilutions were prepared in polypropylene microtiter plates: a stock of the test compounds was prepared with a 2x final concentration in LB. Moreover, 100 µL of the stock was added to the wells of the top row of which 50 µL was used for the serial dilution. The bottom row of each plate was used as the positive (50 µL of LB) and negative controls (100 µL of LB) (6 wells each). Furthermore, 50 µL of the 2.0 × 10^6 CFU/mL bacterial stock was added to each well except for the negative controls, adding up to a total volume of 100 µL per well. The plates were sealed with a breathable seal and incubated for 20 h at 37 °C and 600 rpm.
(§3) Two 96-well plates were required per compound. A serial dilution of the compound was performed on two plates from row A–G using with LB as medium. Row H was filled with 25 µL medium. On a separate plate a negative control (8 wells, 100 μL medium) was prepared. For all concentrations of antibiotic a specific stock was prepared. 25 µL medium was added to the 0 µg/mL antibiotic columns (plate I, column 1–3). Of each antibiotic stock 25 µL was added to three columns to obtain triplicates for every condition. Both plates contained 50 µL in each well to which 50 µL bacterial stock was added (see the protocol of the MIC assays) and the plates were sealed. After incubation for 20 h at 37 °C while shaking, the breathable seals were removed and the density of the bacterial suspensions measured at 600 nm (OD600) using a Tecan Spark plate reader. The OD600 values were transformed to a 2D gradient with the negative control as minimum and the positive control (wells G1, G2, and G3) as maximum in excel. The FICi was calculated using Equation (1) with a FICi ≤ 0.5 indicating synergy. FICi = (MSCa/MICa) + (MSCb/MICb),(1)
(§4) Calculation of the FICi: MSCa = concentration of the […] in combination with the antibiotic that results in the lowest FICi. MICa = MIC of the antibiotic without synergist (row G). MSCb = concentration of the synergist in combination with the antibiotic that results in the lowest FICi. MICb = MIC of the synergist itself (Column 1–3, plate I).

Data set [2] deals with E. coli BW25113. The format is cell-based, Escherichia coli. The note with it: for FICi: BW25113, 20 h; for MICpep: synergist alone, E. coli BW25113, from checkerboard with rifampicin; for MSCpep: synergist concentration in the combination with rifampicin giving the lowest FICi; for MSCpep / MSCrif: E. coli BW25113; for MSCrif: rifampicin concentration in the combination giving the lowest FICi. The method, then: as §1, §2, §3, §4

For data set [3], the system named is defibrinated sheep blood (red blood cells). The experiment in a line: Hemolysis assay. Particulars: 200 µg/mL compound, 20 h incubation at 37 °C with defibrinated sheep blood, PBS 0.002% Tween20, absorbance 415 nm, relative to 0.1% Triton X-100; n=3 technical replicates. The format is cell-based. The method, then:
Defibrinated sheep blood (Thermo Fisher Scientific) and a phosphate-buffered saline (PBS) buffer containing 0.002% Tween20 were used in this assay. The red blood cells were washed with buffer followed by centrifugation (400 g for 15 min at 4 °C). The red blood cells were then normalized to obtain a positive control read-out around 2.5 at 415 nm to stay in the linear range with the maximum sensitivity. A serial dilution of the compounds (200–1.56 µg/mL, 75 µL) was prepared in a 96-well plate. Each plate contained a positive control (0.1% Triton X-100 final concentration, 75 µL) and the negative control (buffer, 75 µL). After addition of normalized blood cells (75 µL), the plates were incubated for 20 h at 37 °C at 500 rpm. The plates were centrifuged (800× g for 5 min at room temperature). For the next step flat-bottom polystyrene plates were prepared with 100 µL buffer in each well. Aliquots of 25 µL supernatant from the centrifuged plates were then transferred to their respective wells in the flat-bottom plate. Absorbance values where measured at 415 nm and corrected for background (negative control) and transformed to a percentage hemolysis relative to the positive control.

`CC[C@H](C)[C@H](NC(=O)[C@@H](NC(=O)[C@H](CCCCN)NC(=O)[C@H](C)NC(=O)[C@@H](NC(=O)[C@H](Cc1c[nH]c2ccccc12)NC(=O)[C@H](CCCCN)NC(=O)[C@H](CCCCN)NC(=O)[C@H](CC(C)C)NC(=O)[C@H](CCCNC(=N)N)NC(=O)[C@H](Cc1ccccc1)NC(=O)[C@@H](N)C(C)C)[C@@H](C)CC)C(C)C)C(N)=O` [compound 16] (H-VFRLKKWIAKVI-NH2): in data set [1], the MSCery worked out at 12.5 µg/mL; the “MIC of the peptide (MICpep)” value came out at 25 µg/mL; the “MSCpeptide, minimum synergistic concentration” value came to 3.125 µg/mL. Moreover, in data set [2], the FICi is 0.2656, the MICpep came out at 25 µg/mL and the MSCpep is 6.25 µg/mL. The Hemolysis in data set [3] is 3.5% and 4%.
On to `CC[C@H](C)[C@H](NC(=O)[C@@H](NC(=O)[C@H](C)NC(=O)[C@H](CCC(N)=O)NC(=O)[C@@H](NC(=O)[C@H](Cc1c[nH]c2ccccc12)NC(=O)[C@H](CCCCN)NC(=O)[C@H](CCCCN)NC(=O)[C@H](CC(C)C)NC(=O)[C@H](CCCNC(=N)N)NC(=O)[C@H](Cc1ccccc1)NC(=O)[C@@H](N)C(C)C)[C@@H](C)CC)C(C)C)C(N)=O` [compound 17] (H-VFRLKKWIQAVI-NH2), for which, in data set [1], the MSCery came to 6.25 µg/mL; the “MIC of the peptide (MICpep)” value came to 12.5 µg/mL; the “MSCpeptide, minimum synergistic concentration” value was 6.25 µg/mL; the FICi is reported as above 0.5. Further, in data set [2], the FICi is 0.2656, the MICpep came to 25 µg/mL and the MSCpep was 6.25 µg/mL. In data set [3], the Hemolysis was 20.7% and 21%.
Take `CC[C@H](C)[C@H](NC(=O)[C@H](C)NC(=O)[C@H](CCCCN)NC(=O)[C@H](CCC(N)=O)NC(=O)[C@@H](NC(=O)[C@H](Cc1c[nH]c2ccccc12)NC(=O)[C@H](CCCCN)NC(=O)[C@H](CCCCN)NC(=O)[C@H](CC(C)C)NC(=O)[C@H](CCCNC(=N)N)NC(=O)[C@H](Cc1ccccc1)NC(=O)[C@@H](N)C(C)C)[C@@H](C)CC)C(N)=O` [compound 18] (H-VFRLKKWIQKAI-NH2): in data set [1], the MSCery came to 12.5 µg/mL; the “MIC of the peptide (MICpep)” value is 50 µg/mL; the “MSCpeptide, minimum synergistic concentration” value is given as 3.125 µg/mL; the FICi is reported as 0.1250. In data set [2], the FICi amounted to 0.0781, the MICpep was 50 µg/mL and the MSCpep stood at 3.125 µg/mL. For the same compound, the Hemolysis in data set [3] is 2.3% and 2%.
Turning to `CC[C@H](C)[C@H](NC(=O)[C@@H](NC(=O)[C@H](CCCCN)NC(=O)[C@H](CCC(N)=O)NC(=O)[C@@H](NC(=O)[C@H](Cc1c[nH]c2ccccc12)NC(=O)[C@H](CCCCN)NC(=O)[C@H](CCCCN)NC(=O)[C@H](CC(C)C)NC(=O)[C@H](CCCNC(=N)N)NC(=O)[C@H](Cc1ccccc1)NC(=O)[C@@H](N)C(C)C)[C@@H](C)CC)C(C)C)C(=O)O` [peptide 1] (H-VFRLKKWIQKVI-OH), in data set [1], the MSCery was 12.5 µg/mL; the “MIC of the peptide (MICpep)” value was determined as 200 µg/mL; the “MSCpeptide, minimum synergistic concentration” value is 25 µg/mL. Moreover, in data set [2], the MSCrif came to 0.25 µg/mL, the MICpep is 200 µg/mL and the MSCpep is 12.5 µg/mL. Also, the Hemolysis in data set [3] is 0.1% and 0%.
For `CC[C@H](C)[C@H](NC(=O)[C@@H](NC(=O)[C@H](CCCCN)NC(=O)[C@H](CCC(N)=O)NC(=O)[C@@H](NC(=O)[C@H](Cc1c[nH]c2ccccc12)NC(=O)[C@H](CCCCN)NC(=O)[C@H](CCCCN)NC(=O)[C@H](CC(C)C)NC(=O)[C@H](CCCNC(=N)N)NC(=O)[C@H](Cc1ccccc1)NC(=O)[C@@H](NC(C)=O)C(C)C)[C@@H](C)CC)C(C)C)C(=O)O` [peptide 5] (Ac-VFRLKKWIQKVI-OH), in data set [1], the MSCery is 6.25 µg/mL; the “MIC of the peptide (MICpep)” value is above 200 µg/mL; the “MSCpeptide, minimum synergistic concentration” value is 50 µg/mL. Further, in data set [2], the MSCrif worked out at 0.25 µg/mL, the MICpep was above 200 µg/mL and the MSCpep came to 50 µg/mL. For the same compound, the Hemolysis in data set [3] was 0.2% and 0%.
`CC[C@H](C)[C@H](NC(=O)[C@@H](NC(=O)[C@H](CCCCN)NC(=O)[C@H](CCC(N)=O)NC(=O)[C@@H](NC(=O)[C@H](Cc1c[nH]c2ccccc12)NC(=O)[C@H](CCCCN)NC(=O)[C@H](CCCCN)NC(=O)[C@H](CC(C)C)NC(=O)[C@H](CCCNC(=N)N)NC(=O)[C@H](Cc1ccccc1)NC(=O)[C@@H](NC(C)=O)C(C)C)[C@@H](C)CC)C(C)C)C(N)=O` [peptide 7] (Ac-VFRLKKWIQKVI-NH2): in data set [1], the MSCery is 3.125 µg/mL; the “MIC of the peptide (MICpep)” value is 50 µg/mL; the “MSCpeptide, minimum synergistic concentration” value amounted to 12.5 µg/mL. For the same compound, in data set [2], the MICpep came out at 50 µg/mL and the MSCpep was determined as 12.5 µg/mL. Further, the Hemolysis in data set [3] was 4.6% and 5%.
On to `CC[C@H](C)[C@H](NC(=O)[C@@H](NC(=O)[C@H](CCCCN)NC(=O)[C@H](CCC(N)=O)NC(=O)[C@@H](NC(=O)[C@H](Cc1c[nH]c2ccccc12)NC(=O)[C@H](CCCCN)NC(=O)[C@H](CCCCN)NC(=O)[C@H](CC(C)C)NC(=O)[C@H](CCCNC(=N)N)NC(=O)[C@H](Cc1ccccc1)NC(=O)[C@H](C)N)[C@@H](C)CC)C(C)C)C(N)=O` [peptide 8] (H-AFRLKKWIQKVI-NH2), for which, in data set [1], the MSCery was found to be 12.5 µg/mL; the “MIC of the peptide (MICpep)” value was 12.5 µg/mL; the “MSCpeptide, minimum synergistic concentration” value worked out at 1.563 µg/mL. In data set [2], the FICi is 0.1406, the MICpep was 12.5 µg/mL and the MSCpep came out at 1.563 µg/mL. Besides, in data set [3], the Hemolysis is 1.5% and 2%.
With `CC[C@H](C)[C@H](NC(=O)[C@@H](NC(=O)[C@H](CCCCN)NC(=O)[C@H](CCC(N)=O)NC(=O)[C@@H](NC(=O)[C@H](Cc1c[nH]c2ccccc12)NC(=O)[C@H](CCCCN)NC(=O)[C@H](CCCCN)NC(=O)[C@H](CC(C)C)NC(=O)[C@H](CCCNC(=N)N)NC(=O)[C@H](C)NC(=O)[C@@H](N)C(C)C)[C@@H](C)CC)C(C)C)C(N)=O` [peptide 9] (H-VARLKKWIQKVI-NH2), in data set [1], the MSCery amounted to 12.5 µg/mL; the “MIC of the peptide (MICpep)” value is on record as 50 µg/mL; the “MSCpeptide, minimum synergistic concentration” value is 3.125 µg/mL; the FICi was found to be 0.1250. For the same compound, in data set [2], the FICi turned out to be 0.1406, the MICpep came out at 200 µg/mL and the MSCpep amounted to 25 µg/mL. In data set [3], the Hemolysis is 0.1% and 0%.
